ChEMBL document CHEMBL1156487, “Proximity-accelerated chemical coupling reaction in the benzodiazepine-binding site of gamma-aminobutyric acid type A receptors: superposition of different allosteric modulators” (J Biol Chem, 2007)
The source made the active and inactive calls. No cut-off for these calls is given here.

Key:
Oocyte [1] = assay: (§1) Activity at rat […] GABAA alpha-1V202Cbeta-2-gamma-2 mutant receptor expressed in xenopus oocytes assessed as GABA-elicited response by two electrode voltage clamp method relative to control; type: cell-based
Oocyte [2] = assay: (§2) Activity at rat […] GABAA alpha-1V211Cbeta-2-gamma-2 mutant receptor expressed in xenopus oocytes assessed as GABA-elicited response by two electrode voltage clamp method relative to control; type: cell-based
Oocyte [3] = assay: Activity at rat GABAA alpha-1H101Cbeta-2-gamma-2 mutant receptor expressed in xenopus oocytes assessed as change in GABA-induced current amplitude at 1 uM after 1 min exposure to GABA by two electrode voltage clamp method; type: cell-based
[4] = (§3) Activity at rat […] GABAA alpha-1H101Cbeta-2-gamma-2 mutant receptor expressed in xenopus oocytes assessed as GABA-elicited response by two electrode voltage clamp method relative to control; type: cell-based; conditions: Oocyte
Oocyte [5] = assay: as §3; type: cell-based
Oocyte [6] = assay: (§4) Activity at rat […] GABAA alpha-1G157Cbeta-2-gamma-2 mutant receptor expressed in xenopus oocytes assessed as GABA-elicited response by two electrode voltage clamp method relative to control; type: cell-based
[7] = as §1; type: cell-based; conditions: Oocyte
[8] = as §2; type: cell-based; conditions: Oocyte
Oocyte [9] = assay: Activity at rat GABAA alpha-1H101Cbeta-2-gamma-2 mutant receptor expressed in xenopus oocytes assessed as change in GABA-induced current amplitude at 500 nM by two electrode voltage clamp method in presence of L-cysteine; type: cell-based
Oocyte [10] = assay: Activity at rat GABAA alpha-1H101Cbeta-2-gamma-2 mutant receptor expressed in xenopus oocytes assessed as change in GABA-induced current amplitude at 10 nM to 1 uM after 1 min exposure to GABA by two electrode voltage clamp method; type: cell-based
Oocyte [11] = assay: Activity at rat GABAA alpha-1H101Cbeta-2-gamma-2 mutant receptor expressed in xenopus oocytes assessed as change in GABA-induced current amplitude first phase stimulation at 3 uM by two electrode voltage clamp method; type: cell-based
Oocyte [12] = assay: Activity at rat GABAA alpha-1H101Cbeta-2-gamma-2 mutant receptor expressed in xenopus oocytes assessed as change in GABA-induced current amplitude second phase stimulation at 3 uM by two electrode voltage clamp method; type: cell-based
Oocyte [13] = assay: Activity at rat GABAA alpha-1G157Cbeta-2-gamma-2 mutant receptor expressed in xenopus oocytes assessed as change in GABA-induced current amplitude at 1 uM after 1 min exposure to GABA by two electrode voltage clamp method; type: cell-based
Oocyte [14] = assay: Activity at rat GABAA alpha-1V202Cbeta-2-gamma-2 mutant receptor expressed in xenopus oocytes assessed as change in GABA-induced current amplitude at 1 uM after 1 min exposure to GABA by two electrode voltage clamp method; type: cell-based
Oocyte [15] = assay: Activity at rat GABAA alpha-1V211Cbeta-2-gamma-2 mutant receptor expressed in xenopus oocytes assessed as change in GABA-induced current amplitude at 1 uM after 1 min exposure to GABA by two electrode voltage clamp method; type: cell-based
HEK293 [16] = assay: Displacement of [3H]Ro15-1788 from rat GABAA alpha-1H101Cbeta-2-gamma-2 mutant receptor expressed in HEK293 cells assessed as residual binding after pretreatment of L-cysteine at 30 nM after 1 hr by liquid scintillation counting; type: cell-based
HEK293 [17] = assay: Displacement of [3H]Ro15-1788 from rat GABAA alpha-1H101Cbeta-2-gamma-2 mutant receptor expressed in HEK293 cells assessed as residual binding without pretreatment of L-cysteine at 30 nM after 1 hr by liquid scintillation counting; type: cell-based
HEK293 [18] = assay: Displacement of [3H]Ro15-1788 from rat GABAA alpha-1H101Cbeta-2-gamma-2 mutant receptor expressed in HEK293 cells assessed as residual binding at 10 nM after 1 hr by liquid scintillation counting; type: cell-based
HEK293 [19] = assay: Displacement of [3H]Ro15-1788 from rat GABAA alpha-1H101Cbeta-2-gamma-2 mutant receptor expressed in HEK293 cells assessed as residual binding at 10 nM after 1 hr by liquid scintillation counting in presence of Ro15-1788; type: cell-based
HEK293 [20] = assay: Displacement of [3H]Ro15-1788 from rat GABAA alpha-1H101Cbeta-2-gamma-2 mutant receptor expressed in HEK293 cells assessed as residual binding at 10 nM after 1 hr by liquid scintillation counting in presence of flunitrazepam; type: cell-based
[21] = Displacement of [3H]Ro15-1788 from rat GABAA alpha-1H101Cbeta-2-gamma-2 mutant receptor expressed in HEK293 cells after 1 hr assessed as residual binding by liquid scintillation counting; type: cell-based
[22] = as §4; type: cell-based; conditions: Oocyte
[23] = Displacement of [3H]Ro15-1788 from rat GABAA alpha-1-beta-2-gamma-2S receptor expressed in HEK293 cells by liquid scintillation counting; type: cell-based
HEK293 [24] = assay: Displacement of [3H]Ro15-1788 from rat GABAA alpha-1H101Cbeta-2-gamma-2 mutant receptor expressed in HEK293 cells assessed as residual binding at 100 nM after 1 hr by liquid scintillation counting; type: cell-based
HEK293 [25] = assay: Displacement of [3H]Ro15-1788 from rat GABAA alpha-1G157Cbeta-2-gamma-2 mutant receptor expressed in HEK293 cells assessed as residual binding at 100 nM after 1 hr by liquid scintillation counting; type: cell-based
HEK293 [26] = assay: Displacement of [3H]Ro15-1788 from rat GABAA alpha-1V202Cbeta-2-gamma-2 mutant receptor expressed in HEK293 cells assessed as residual binding at 100 nM after 1 hr by liquid scintillation counting; type: cell-based
HEK293 [27] = assay: Displacement of [3H]Ro15-1788 from rat GABAA alpha-1V211Cbeta-2-gamma-2 mutant receptor expressed in HEK293 cells assessed as residual binding at 100 nM after 1 hr by liquid scintillation counting; type: cell-based
[28] = target: T1, Gamma-aminobutyric acid receptor subunit alpha-1 (Homo sapiens) (UniProt P14867); conditions: Rattus norvegicus; Oocyte; 1 uM
T1 sequence (whole entry): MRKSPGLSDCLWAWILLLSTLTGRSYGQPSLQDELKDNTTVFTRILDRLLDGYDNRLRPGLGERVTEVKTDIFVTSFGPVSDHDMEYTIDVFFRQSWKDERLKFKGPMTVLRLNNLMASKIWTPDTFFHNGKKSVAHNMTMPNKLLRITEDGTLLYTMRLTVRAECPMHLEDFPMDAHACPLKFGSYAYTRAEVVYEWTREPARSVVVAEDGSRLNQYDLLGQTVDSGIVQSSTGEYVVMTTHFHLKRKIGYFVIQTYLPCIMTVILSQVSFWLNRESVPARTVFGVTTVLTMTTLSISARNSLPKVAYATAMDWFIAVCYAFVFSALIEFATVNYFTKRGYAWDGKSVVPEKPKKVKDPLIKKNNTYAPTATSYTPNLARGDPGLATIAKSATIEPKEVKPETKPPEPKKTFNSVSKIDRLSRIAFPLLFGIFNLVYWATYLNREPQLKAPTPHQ
Description: Activity at rat wild type GABAA alpha-1-beta-2-gamma-2 receptor expressed in xenopus oocytes assessed as change in GABA-induced current amplitude at 1 uM after 1 min exposure to GABA by two electrode voltage clamp method

[29] = target: T1, Gamma-aminobutyric acid receptor subunit alpha-1 (Homo sapiens); conditions: Rattus norvegicus; Oocyte; 1 uM; remark: listed apart in the source
Description: Activity at rat wild type GABAA alpha-1-beta-2-gamma-2 receptor expressed in xenopus oocytes assessed as change in GABA-induced current amplitude at 1 uM after 5 min exposure to GABA by two electrode voltage clamp method

[30] = target: T1, Gamma-aminobutyric acid receptor subunit alpha-1 (Homo sapiens); conditions: Rattus norvegicus; Oocyte; 10 uM
Description: Activity at rat wild type GABAA alpha-1-beta-2-gamma-2 receptor expressed in xenopus oocytes assessed as change in GABA-induced current amplitude at 10 uM after 5 min by two electrode voltage clamp method

Oocyte [31] = assay: Activity at rat GABAA alpha-1H101Cbeta-2-gamma-2 mutant receptor expressed in xenopus oocytes assessed as change in GABA-induced current amplitude at 10 uM after 1 min exposure to GABA by two electrode voltage clamp method; type: cell-based

`CCOC(=O)c1ncn2c1CN(C)C(=O)c1cc(F)ccc1-2` [FLUMAZENIL] showed a max activation (Oocyte [1]) of 1%, a max activation (Oocyte [2]) of 5% and an inhibition (Oocyte [3]) of 22%. It also gave an EC50 [4] of 30 nM, a max activation (Oocyte [5]) of 22% and a max activation (Oocyte [6]) of -2%.

With `CCOC(=O)c1ncn2c1CN(C)C(=O)c1cc(N=C=S)ccc1-2` the EC50 [7] was 668 nM, the max activation (Oocyte [1]) was 16% and the EC50 [8] was > 2000 nM. For the same compound, the max activation (Oocyte [2]) was > 140%, the Activity (Oocyte [9]) was “Active” and the Activity (Oocyte [10]) was 362 nM. The inhibition (Oocyte [11]) was 53%, the inhibition (Oocyte [12]) was 47% and the inhibition (Oocyte [13]) was 88%. For the same compound, the inhibition (Oocyte [14]) was 71%, the inhibition (Oocyte [15]) was 5% and the Activity (HEK293 [16]) was 82%. For the same compound, the Activity (HEK293 [17]) was 18%, the Activity (HEK293 [18]) was 29% and the Activity (HEK293 [19]) was 73%. For the same compound, the Activity (HEK293 [20]) was 64%, the Kd [21] was 0.9 nM and the EC50 [4] was 17 nM. The max activation (Oocyte [5]) was 90%, the EC50 [22] was 34 nM and the max activation (Oocyte [6]) was 30%. It also gave a Ki [23] of 10 nM, an Activity (HEK293 [24]) of 85% and an Activity (HEK293 [25]) of 50%. It also gave an Activity (HEK293 [26]) of 50%, an Activity (HEK293 [27]) of 50% and an inhibition [28] of 3%. It also gave an inhibition [29] of 4% and an inhibition [30] of 8%.

Compound `CCOC(=O)c1ncn2c1CN(C)C(=O)c1cc(N=[N+]=[N-])ccc1-2` [Ro-154513] has a max activation (Oocyte [1]) of 9%, an EC50 [8] of 44 nM and a max activation (Oocyte [2]) of -23%. The EC50 [4] was 17 nM, the max activation (Oocyte [5]) was 40% and the EC50 [22] was 32 nM. The max activation (Oocyte [6]) was 36%.

`Cc1ccc(-c2nc3ccc(C)cn3c2CC(=O)N(C)C)cc1` [ZOLPIDEM] showed an EC50 [7] of 2750 nM, a max activation (Oocyte [1]) of 369% and an EC50 [8] of 341 nM. It also gave a max activation (Oocyte [2]) of 127%, an inhibition (Oocyte [31]) of 96% and an EC50 [4] of 1180 nM. For the same compound, the max activation (Oocyte [5]) was 162%, the EC50 [22] was 2630 nM and the max activation (Oocyte [6]) was 427%.
